In patent US20230348378A1, “SMALL MOLECULE ALBUMIN BINDERS” (Oregon Health & Science University, priority 2020, published 2023):
Starred links: 1 amine or outer side, 2 acyl side, 3 side chain; linkers in the order of their positions; H or OH if unused. Positions of bridges follow the written chain, without caps; N, C: chain ends. Non-standard residues stand in square brackets, D forms with d. Residues, ends and D or L forms follow the SMILES beside them. *: point of attachment. DOTA = O=C(O)CN1CCN(CC(=O)O)CCN(CC(=O)*)CCN(CC(=O)O)CC1; NH(CH2CH2O)4CH2CO = O=C(COCCOCCOCCOCCN[*:1])[*:2]; X2 = O=C(CCCc1ccc(C(F)(F)F)c(F)c1)*; X1 = O=C(CCCc1ccc(C(F)(F)F)cc1)*

Legend:
PSMA+ PC3pip xenograft = system: PSMA+ PC3pip xenograft; set-up: species or system mice; settings: mouse, in vivo
Protocol: Biodistribution studies were performed 2 weeks after the tumor inoculation, when the size of tumor reached 5 mm. ^111In-labeled albumin binder-radioligand conjugates (1.85 MBq, 100 μL) were then administered via a lateral tail vein. The mice were sacrificed at 1, 2, 16, 24, or 48 h post-injections. Selected organs were collected and weighed, and the radioactivity was measured by the γ counter (Packard, Cobra E5003). The results were calculated as percentage of the injected dose per gram of mass (% ID/g).

BxPC3 xenograft = experiment: Biodistribution in mice bearing BxPC3 xenograft; type: in vivo
[1] = target: human serum albumin (HSA) (Homo sapiens, UniProt P02768); experiment: In vitro albumin protein binding ultrafiltration assay; settings: for change of albumin binding affinity versus the corresponding ABX conjugate: D-ABCF3 vs ABCF3, hABCF3P vs ABCF3P, hABF3P vs ABF3P, εABCF3 vs ABCF3
Sequence of human serum albumin (HSA) (P02768 25-609): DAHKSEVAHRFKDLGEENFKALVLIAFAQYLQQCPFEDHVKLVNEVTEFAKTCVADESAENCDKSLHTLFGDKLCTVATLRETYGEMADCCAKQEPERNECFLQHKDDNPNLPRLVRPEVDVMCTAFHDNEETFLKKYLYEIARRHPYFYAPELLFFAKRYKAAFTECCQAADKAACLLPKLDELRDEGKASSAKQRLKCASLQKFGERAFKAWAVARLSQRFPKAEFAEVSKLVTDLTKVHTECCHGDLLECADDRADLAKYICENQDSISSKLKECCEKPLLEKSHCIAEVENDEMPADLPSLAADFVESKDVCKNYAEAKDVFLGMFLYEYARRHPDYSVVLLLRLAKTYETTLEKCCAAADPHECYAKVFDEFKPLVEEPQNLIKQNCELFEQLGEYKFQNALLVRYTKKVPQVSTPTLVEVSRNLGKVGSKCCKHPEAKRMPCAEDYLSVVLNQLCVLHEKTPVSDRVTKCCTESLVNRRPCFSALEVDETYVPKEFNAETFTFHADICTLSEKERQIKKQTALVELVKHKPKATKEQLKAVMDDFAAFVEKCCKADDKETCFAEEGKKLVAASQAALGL
Protocol: Following the published protocol, ultrafiltration assay was performed to assess albumin-binding properties of ^111In or ^64Cu labeled albumin binder-radioligand conjugates. ^111In or ^64Cu radiolabeling was conducted in NH4OAc (0.2 M, pH=7.0) buffer at 80° C. for 30 min with a specific activity of 3.7 MBq/nmol (100 μCi/nmol). The resulting albumin binder-radioligand conjugate (10 μL, 10 μM) was mixed with 100 μL human serum albumin (HSA, 1.0 mM in PBS 1×) and 90 μL PBS, followed by shaking gently at 37° C. for 30 min. After the incubation, 80 μL of each solution was loaded on the Zeba™ spin desalting column (7K MWCO) and centrifuged at 1500 g for 2 min. Radioactivity in 20 μL of each filtration and 10 μL mixture (before filtration) were quantified by the γ counter. The filtration rate of each sample was calculated as filtered counts/(mixture counts×2)×100%, all obtained results were then normalized by setting standard ABCF3 moiety as 74.4%. for the comparison purpose. The experiment was performed with triplicates. For working curve, different final concentrations of HSA varied from 10-1500 μM were used, followed the same protocol.

[2] = in vivo evaluation of FRGD without albumin binder
[3] = filtration assay, [HSA]=500 μM, [tracers]=0.5 μM

Q: Which “increase of specific tumor uptake compared to PSMA617” value (PSMA+ PC3pip xenograft) does the source give for O=C(O)CC[C@H](NC(=O)N[C@@H](CCCCNC(=O)[C@H](Cc1ccc2ccccc2c1)NC(=O)[C@H]1CC[C@H](CNC(=O)[C@H](CCCCNC(=O)CN2CCN(CC(=O)O)CCN(CC(=O)O)CCN(CC(=O)O)CC2)NC(=O)CCC(=O)N[C@@H](CCCCNC(=O)CCCc2ccc(C(F)(F)F)cc2)C(=O)O)CC1)C(=O)O)C(=O)O (64Cu complex, metal not drawn) [PSMA617-ABCF3] here?
A: Its value is greater than 2 ×.

Q: What about the “tumor/nontumor ratios compared to PSMA617” value (PSMA+ PC3pip xenograft) of the same compound?
A: The value was “enhance tumor/nontumor ratios”.

Q: For CC(C)C[C@@H]1NC(=O)[C@H](CC(=O)O)NC(=O)CNC(=O)[C@H](CCCNC(=N)N)NC(=O)[C@H](Cc2ccccc2)NC(=O)[C@H](CCCCN)N(C)C(=O)[C@H]2CCCN2C(=O)[C@H](Cc2ccccc2)NC(=O)[C@H](C)NC1=O (111In complex, metal not drawn) [FRGD], which kidney uptake (BxPC3 xenograft; 111In labeled, without ABCF3) is on record?
A: Its kidney uptake is “very high”.

Q: And the non-tumor uptakes (BxPC3 xenograft; [2])?
A: The non-tumor uptakes was “high non-tumor uptakes”.

Q: And the tumor uptake (BxPC3 xenograft; [2])?
A: The tumor uptake was “relatively low tumor uptake”.

Q: For [N-]=[N+]=NCCCC[C@H](NC(=O)CN1CCC(CC(=O)O)CCN(CC(=O)O)CCN(CC(=O)O)CC1)C(=O)NCCCCCC(=O)N[C@@H](CCCCNC(=O)CCCc1ccc(C(F)(F)F)cc1)C(=O)O (some centres unmarked) [ABCF3], which “filtration percentage (normalized)” value ([1]; 64Cu-labeled DOTA-albumin binder conjugate, [HSA]=500 μM, [tracers]=0.5 μM, value set as normalisation standard (average)) is on record?
A: Its value is 75%.

Q: With [N-]=[N+]=NCCCC[C@H](NC(=O)CN1CCC(CC(=O)O)CCN(CC(=O)O)CCN(CC(=O)O)CC1)C(=O)NCCCCCC(=O)N[C@H](CCCCNC(=O)CCCc1ccc(C(F)(F)F)cc1)C(=O)O (stereo partly drawn) [D-ABCF3] as the compound, how does the “change of albumin binding affinity versus the corresponding ABX conjugate” value (shortened to “change”) [1, 3] read?
A: The value was “slightly increased binding affinity”.

Q: For CC(C)C[C@@H]1NC(=O)[C@H](CC(=O)O)NC(=O)CNC(=O)[C@H](CCCNC(=N)N)NC(=O)CNC(=O)[C@H]([C@@H](C)O)NC(=O)[C@@H](NC(=O)[C@H](CCCNC(=N)N)NC(=O)CNC(=O)CN2CCN(CC(=O)O)CCN(CC(=O)O)CCN(CC(=O)O)CC2)CSSC[C@@H](C(=O)N[C@@H](Cc2ccc(O)cc2)C(=O)N2CCC[C@H]2C(=O)N[C@@H](CC(=O)O)C(=O)NCCOCCOCCOCCOCC(=O)N[C@@H](CCCCNC(=O)CCCc2ccc(C(F)(F)F)c(F)c2)C(=O)O)NC(=O)[C@H](CC(C)C)NC(=O)[C@H](CCCNC(=N)N)NC(=O)CNC1=O [SFLAP3-ABCF3-3F] ({DOTA}-GRCTGRGDLGRLCYPD[NH(CH2CH2O)4CH2CO]K(X2)-OH; disulfide 3-13), which “in vivo performance (biodistribution, tumor/nontumor ratios)” value (BxPC3 xenograft; SFLAP3 conjugates with various ABX, 24 h) is on record?
A: The value was “best in vivo performance among all the tested ABX”.

Q: How did the “percentage bound to albumin protein” value ([1]; 64Cu-labeled, filtration assay, FIG. 6) turn out when CC(C)C[C@@H]1NC(=O)[C@H](CC(=O)O)NC(=O)CNC(=O)[C@H](CCCNC(=N)N)NC(=O)CNC(=O)[C@H]([C@@H](C)O)NC(=O)[C@@H](NC(=O)[C@H](CCCNC(=N)N)NC(=O)CNC(=O)CN2CCN(CC(=O)O)CCN(CC(=O)O)CCN(CC(=O)O)CC2)CSSC[C@@H](C(=O)N[C@@H](Cc2ccc(O)cc2)C(=O)N2CCC[C@H]2C(=O)N[C@@H](CC(=O)O)C(=O)NCCOCCOCCOCCOCC(=O)N[C@@H](CCCCNC(=O)CCCc2ccc(C(F)(F)F)cc2)C(=O)O)NC(=O)[C@H](CC(C)C)NC(=O)[C@H](CCCNC(=N)N)NC(=O)CNC1=O [SFLAP3-ABCF3] ({DOTA}-GRCTGRGDLGRLCYPD[NH(CH2CH2O)4CH2CO]K(X1)-OH; disulfide 3-13) was run?
A: The value was roughly 75%.

Q: How did the “change” value [1, 3] turn out when [N-]=[N+]=NCCCC[C@H](NC(=O)CN1CCN(CC(=O)O)CCN(CC(=O)O)CCN(CC(=O)O)CC1)C(=O)NCCCCCC(=O)N[C@H](CCCCCNC(=O)CCc1cc(F)c(F)c(F)c1)C(=O)O [hABF3P] was run?
A: The value was “slightly increased binding affinity”.

Q: Which “change” value [1, 3] does the source give for [N-]=[N+]=NCCCC[C@H](NC(=O)CN1CCN(CC(=O)O)CCN(CC(=O)O)CCN(CC(=O)O)CC1)C(=O)NCC(=O)NCCCC[C@H](NCCC(=O)NCCCCc1ccc(C(F)(F)F)cc1)C(=O)O [εABCF3] here?
A: The value was “significantly decrease its binding affinity”.
